# Reference: ChEMBL document CHEMBL1201862, “PubChem BioAssay data set” (2004)
#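 A five-concentration, 48-hour dose response in 96-well plates underlies each endpoint, interpolated linearly between surrounding concentrations. The concentration for 50% growth inhibition is given as GI50.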 Activity calls are given as the source filed them. Cut-off read from the data, not from the text of the source: active = GI50 up to about 1.1 µM and inactive = higher.
# Key:
# Assay in all cases: NCI-60 cell line screen, 48 h
# NCI/ADR-RES = test system: NCI/ADR-RES
# UO-31 = test system: UO-31
# OVCAR-4 = test system: OVCAR-4
# COLO 205 = test system: COLO 205
# MDA-MB-231 = test system: MDA-MB-231
# SF-268 = test system: SF-268
# UACC-62 = test system: UACC-62
# EKVX = test system: EKVX
# SNB-75 = test system: SNB-75
# Malme-3M = test system: Malme-3M
# SF-539 = test system: SF-539
# HCT-15 = test system: HCT-15
# SNB-19 = test system: SNB-19
# A549 = test system: A549
# CAKI-1 = test system: CAKI-1
# NCI-H226 = test system: NCI-H226
# A498 = test system: A498
# SR = test system: SR
# SF-295 = test system: SF-295
# T47D = test system: T47D
smiles,measurement,setting,value
Cc1nn(-c2ccccc2)c(C)c1/C=N/NC(=O)c1sc(=S)n(-c2ccccc2)c1N,GI50,NCI/ADR-RES,3.62 µM (inactive)
same,GI50,UO-31,3.74 µM (inactive)
same,GI50,OVCAR-4,2.69 µM (inactive)
same,GI50,COLO 205,1.42 µM (inactive)
same,GI50,MDA-MB-231,2.18 µM (inactive)
same,GI50,SF-268,5.22 µM (inactive)
same,GI50,UACC-62,4.62 µM (inactive)
same,GI50,EKVX,3.39 µM (inactive)
same,GI50,SNB-75,0.281 µM (active)
same,GI50,Malme-3M,3.58 µM (inactive)
same,GI50,SF-539,2.39 µM (inactive)
same,GI50,HCT-15,4.89 µM
same,GI50,SNB-19,30.8 µM (inactive)
same,GI50,A549,3.9 µM (inactive)
same,GI50,CAKI-1,1.56 µM (inactive)
same,GI50,NCI-H226,6.52 µM (inactive)
same,GI50,A498,3.63 µM (inactive)
same,GI50,SR,3.94 µM (inactive)
same,GI50,SF-295,2.42 µM (inactive)
same,GI50,T47D,4.2 µM (inactive)
